Laboratory results: PubChem BioAssay (NCI)
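Following 48 hours of exposure in 96-well plates, responses at five concentrations were used to interpolate endpoints linearly. TGI denotes the concentration required for complete inhibition of growth.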

Assays:
Assay in all cases: NCI anticancer screen, dose series, 48 h
KM12 colon = tested on: KM12 colon
IGROV1 ovarian = tested on: IGROV1 ovarian
A549 NSCLC = tested on: A549 NSCLC
HL-60(TB) leukemia = tested on: HL-60(TB) leukemia
U251 CNS = tested on: U251 CNS
SN12C renal = tested on: SN12C renal
786-0 renal = tested on: 786-0 renal
DMS 273 small cell lung = tested on: DMS 273 small cell lung
UACC-257 melanoma = tested on: UACC-257 melanoma
HCT-15 colon = tested on: HCT-15 colon
HT29 colon = tested on: HT29 colon
COLO 205 colon = tested on: COLO 205 colon
NCI-H23 lung = tested on: NCI-H23 lung
M14 melanoma = tested on: M14 melanoma
ACHN renal = tested on: ACHN renal
SK-MEL-2 melanoma = tested on: SK-MEL-2 melanoma
HOP-18 NSCLC = tested on: HOP-18 NSCLC
SK-MEL-5 melanoma = tested on: SK-MEL-5 melanoma
SF-539 CNS = tested on: SF-539 CNS
MALME-3M melanoma = tested on: MALME-3M melanoma
CAKI-1 renal = tested on: CAKI-1 renal
SK-OV-3 ovarian = tested on: SK-OV-3 ovarian
RXF 393 renal = tested on: RXF 393 renal
NCI-H522 lung = tested on: NCI-H522 lung
RXF-631 renal = tested on: RXF-631 renal
DLD-1 colon = tested on: DLD-1 colon
UO-31 renal = tested on: UO-31 renal
OVCAR-5 ovarian = tested on: OVCAR-5 ovarian
SW-620 colon = tested on: SW-620 colon
DMS 114 small cell lung = tested on: DMS 114 small cell lung
OVCAR-4 ovarian = tested on: OVCAR-4 ovarian
UACC-62 melanoma = tested on: UACC-62 melanoma
SK-MEL-28 melanoma = tested on: SK-MEL-28 melanoma
HCT-116 colon = tested on: HCT-116 colon
SF-295 CNS = tested on: SF-295 CNS
NCI-H460 lung = tested on: NCI-H460 lung
MOLT-4 leukemia = tested on: MOLT-4 leukemia
SNB-19 CNS = tested on: SNB-19 CNS
SF-268 CNS = tested on: SF-268 CNS
EKVX NSCLC = tested on: EKVX NSCLC
HOP-92 NSCLC = tested on: HOP-92 NSCLC
RPMI-8226 leukemia = tested on: RPMI-8226 leukemia
LXFL 529 NSCLC = tested on: LXFL 529 NSCLC
OVCAR-3 ovarian = tested on: OVCAR-3 ovarian
SNB-78 CNS = tested on: SNB-78 CNS
K-562 leukemia = tested on: K-562 leukemia
HOP-62 NSCLC = tested on: HOP-62 NSCLC
M19-MEL melanoma = tested on: M19-MEL melanoma
HCC-2998 colon = tested on: HCC-2998 colon
KM20L2 colon = tested on: KM20L2 colon
SNB-75 CNS = tested on: SNB-75 CNS
NCI-H226 lung = tested on: NCI-H226 lung
OVCAR-8 ovarian = tested on: OVCAR-8 ovarian
CCRF-CEM leukemia = tested on: CCRF-CEM leukemia
A498 renal = tested on: A498 renal
TK-10 renal = tested on: TK-10 renal
LOX IMVI melanoma = tested on: LOX IMVI melanoma
XF 498 CNS = tested on: XF 498 CNS

CNCCCCN(C)/[N+]([O-])=N\O
TGI (KM12 colon): > 100 µM
TGI (IGROV1 ovarian): > 100 µM
TGI (A549 NSCLC): > 100 µM
TGI (HL-60(TB) leukemia): > 100 µM
TGI (U251 CNS): > 100 µM
TGI (SN12C renal): > 100 µM
TGI (786-0 renal): > 100 µM
TGI (DMS 273 small cell lung): > 100 µM
TGI (UACC-257 melanoma): > 100 µM
TGI (HCT-15 colon): > 100 µM
TGI (HT29 colon): > 100 µM
TGI (COLO 205 colon): > 100 µM
TGI (NCI-H23 lung): > 100 µM
TGI (M14 melanoma): > 100 µM
TGI (ACHN renal): > 100 µM
TGI (SK-MEL-2 melanoma): > 100 µM
TGI (HOP-18 NSCLC): > 100 µM
TGI (SK-MEL-5 melanoma): > 100 µM
TGI (SF-539 CNS): > 100 µM
TGI (MALME-3M melanoma): > 100 µM
TGI (CAKI-1 renal): > 100 µM
TGI (SK-OV-3 ovarian): > 100 µM
TGI (RXF 393 renal): > 100 µM
TGI (NCI-H522 lung): > 100 µM
TGI (RXF-631 renal): > 100 µM
TGI (DLD-1 colon): > 100 µM
TGI (UO-31 renal): > 100 µM
TGI (OVCAR-5 ovarian): > 100 µM
TGI (SW-620 colon): > 100 µM
TGI (DMS 114 small cell lung): > 100 µM
TGI (OVCAR-4 ovarian): > 100 µM
TGI (UACC-62 melanoma): > 100 µM
TGI (SK-MEL-28 melanoma): > 100 µM
TGI (HCT-116 colon): > 100 µM
TGI (SF-295 CNS): > 100 µM
TGI (NCI-H460 lung): > 100 µM
TGI (MOLT-4 leukemia): > 100 µM
TGI (SNB-19 CNS): > 100 µM
TGI (SF-268 CNS): > 100 µM
TGI (EKVX NSCLC): > 100 µM
TGI (HOP-92 NSCLC): > 100 µM
TGI (RPMI-8226 leukemia): > 100 µM
TGI (LXFL 529 NSCLC): > 100 µM
TGI (OVCAR-3 ovarian): > 100 µM
TGI (SNB-78 CNS): > 100 µM
TGI (K-562 leukemia): > 100 µM
TGI (HOP-62 NSCLC): > 100 µM
TGI (M19-MEL melanoma): > 100 µM
TGI (HCC-2998 colon): > 100 µM
TGI (KM20L2 colon): > 100 µM
TGI (SNB-75 CNS): > 100 µM
TGI (NCI-H226 lung): > 100 µM
TGI (OVCAR-8 ovarian): > 100 µM
TGI (CCRF-CEM leukemia): > 100 µM

O=C(CCc1n[nH]c(=S)o1)Nc1ccc(Cl)cc1Cl
TGI (KM12 colon): > 100 µM
TGI (IGROV1 ovarian): > 100 µM
TGI (A549 NSCLC): > 100 µM
TGI (HL-60(TB) leukemia): > 100 µM
TGI (U251 CNS): > 100 µM
TGI (SN12C renal): > 100 µM
TGI (786-0 renal): > 100 µM
TGI (DMS 273 small cell lung): > 100 µM
TGI (UACC-257 melanoma): > 100 µM
TGI (HCT-15 colon): 46.1 µM
TGI (HT29 colon): > 100 µM
TGI (COLO 205 colon): > 100 µM
TGI (NCI-H23 lung): > 100 µM
TGI (M14 melanoma): > 100 µM
TGI (ACHN renal): > 100 µM
TGI (HOP-18 NSCLC): > 100 µM
TGI (SK-MEL-5 melanoma): > 100 µM
TGI (SF-539 CNS): > 100 µM
TGI (MALME-3M melanoma): > 100 µM
TGI (CAKI-1 renal): > 100 µM
TGI (SK-OV-3 ovarian): > 100 µM
TGI (NCI-H522 lung): > 100 µM
TGI (RXF-631 renal): > 100 µM
TGI (DLD-1 colon): > 100 µM
TGI (UO-31 renal): > 100 µM
TGI (OVCAR-5 ovarian): > 100 µM
TGI (SW-620 colon): 29.9 µM
TGI (DMS 114 small cell lung): > 100 µM
TGI (A498 renal): > 100 µM
TGI (OVCAR-4 ovarian): > 100 µM
TGI (UACC-62 melanoma): > 100 µM
TGI (SK-MEL-28 melanoma): > 100 µM
TGI (HCT-116 colon): > 100 µM
TGI (SF-295 CNS): > 100 µM
TGI (NCI-H460 lung): > 100 µM
TGI (MOLT-4 leukemia): > 100 µM
TGI (SNB-19 CNS): > 100 µM
TGI (SF-268 CNS): > 100 µM
TGI (EKVX NSCLC): > 100 µM
TGI (HOP-92 NSCLC): > 100 µM
TGI (RPMI-8226 leukemia): 44.4 µM
TGI (TK-10 renal): > 100 µM
TGI (LXFL 529 NSCLC): > 100 µM
TGI (OVCAR-3 ovarian): > 100 µM
TGI (SNB-78 CNS): > 100 µM
TGI (K-562 leukemia): > 100 µM
TGI (HOP-62 NSCLC): > 100 µM
TGI (M19-MEL melanoma): > 100 µM
TGI (HCC-2998 colon): > 100 µM
TGI (KM20L2 colon): > 100 µM
TGI (SNB-75 CNS): > 100 µM
TGI (NCI-H226 lung): > 100 µM
TGI (OVCAR-8 ovarian): > 100 µM
TGI (CCRF-CEM leukemia): > 100 µM

CCNC(=O)N(CC)CN(CC)C(=O)NCC
TGI (KM12 colon): > 100 µM
TGI (A549 NSCLC): > 100 µM
TGI (HL-60(TB) leukemia): > 100 µM
TGI (LOX IMVI melanoma): > 100 µM
TGI (XF 498 CNS): > 100 µM
TGI (SN12C renal): > 100 µM
TGI (UACC-257 melanoma): > 100 µM
TGI (HCT-15 colon): > 100 µM
TGI (HT29 colon): > 100 µM
TGI (COLO 205 colon): > 100 µM
TGI (M14 melanoma): > 100 µM
TGI (ACHN renal): > 100 µM
TGI (SK-MEL-2 melanoma): > 100 µM
TGI (SF-539 CNS): > 100 µM
TGI (MALME-3M melanoma): > 100 µM
TGI (CAKI-1 renal): > 100 µM
TGI (SK-OV-3 ovarian): > 100 µM
TGI (NCI-H522 lung): > 100 µM
TGI (RXF-631 renal): > 100 µM
TGI (DLD-1 colon): > 100 µM
TGI (UO-31 renal): > 100 µM
TGI (OVCAR-5 ovarian): > 100 µM
TGI (SW-620 colon): > 100 µM
TGI (DMS 114 small cell lung): > 100 µM
TGI (A498 renal): > 100 µM
TGI (UACC-62 melanoma): > 100 µM
TGI (SK-MEL-28 melanoma): > 100 µM
TGI (HCT-116 colon): > 100 µM
TGI (SF-295 CNS): > 100 µM
TGI (MOLT-4 leukemia): > 100 µM
TGI (SNB-19 CNS): > 100 µM
TGI (SF-268 CNS): > 100 µM
TGI (EKVX NSCLC): > 100 µM
TGI (RPMI-8226 leukemia): > 100 µM
TGI (LXFL 529 NSCLC): > 100 µM
TGI (OVCAR-3 ovarian): > 100 µM
TGI (SNB-78 CNS): > 100 µM
TGI (K-562 leukemia): > 100 µM
TGI (HOP-62 NSCLC): > 100 µM
TGI (M19-MEL melanoma): > 100 µM
TGI (HCC-2998 colon): > 100 µM
TGI (KM20L2 colon): > 100 µM
TGI (SNB-75 CNS): > 100 µM
TGI (NCI-H226 lung): > 100 µM
TGI (OVCAR-8 ovarian): > 100 µM
TGI (CCRF-CEM leukemia): > 100 µM
